The target in experiment [1] is T1, acetylcholinesterase from Electrophorus electricus (electric eel) (type VI-S) (Electrophorus electricus, UniProt O42275).
T1 construct: gene ache; commercial native enzyme from Sigma, type VI-S lyophilized powder
Kind of experiment: Ellman assay, […] nm, 4PL fit. The experiment is classed as biochemical.

Experiment [2] deals with T1, acetylcholinesterase from Electrophorus electricus (electric eel) (type VI-S). Kind of experiment: Ellman assay, […] nm, Michaelis-Menten fit. The experiment is classed as biochemical. The following applies: no inhibitor, 0.1 to 1.6 mM substrate, phosphate buffer pH 8, 37 °C. Background: DTNB colorimetry detects thiols as they appear.
The mark [3] stands for this setting: read-out: no inhibition up to 50 μg/mL.

This passage reports IC50 and Km results from PMC6891289 (Molecules, 2019).

Like-named read-outs stand apart in the source and are kept apart here.

T1 sequence (O42275 24-633): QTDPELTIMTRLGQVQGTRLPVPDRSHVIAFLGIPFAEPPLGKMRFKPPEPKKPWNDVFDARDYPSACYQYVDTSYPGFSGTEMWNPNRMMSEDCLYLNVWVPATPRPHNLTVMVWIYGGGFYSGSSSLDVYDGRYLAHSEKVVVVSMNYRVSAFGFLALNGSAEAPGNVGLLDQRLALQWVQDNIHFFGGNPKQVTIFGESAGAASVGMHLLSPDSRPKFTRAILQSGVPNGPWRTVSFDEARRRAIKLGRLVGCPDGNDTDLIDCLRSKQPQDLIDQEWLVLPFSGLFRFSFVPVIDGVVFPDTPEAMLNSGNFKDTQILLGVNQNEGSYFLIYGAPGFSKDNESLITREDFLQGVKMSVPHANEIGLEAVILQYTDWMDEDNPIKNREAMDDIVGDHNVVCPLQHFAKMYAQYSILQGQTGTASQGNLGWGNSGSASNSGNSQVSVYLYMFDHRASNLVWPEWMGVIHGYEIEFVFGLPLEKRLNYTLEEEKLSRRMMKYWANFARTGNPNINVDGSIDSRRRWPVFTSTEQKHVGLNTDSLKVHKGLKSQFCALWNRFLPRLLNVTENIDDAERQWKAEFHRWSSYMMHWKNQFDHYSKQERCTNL

Take `O=C(O)c1cc(O)c(O)c(O)c1` [gallic acid]: the IC50 in experiment [1] (read-out: IC50) is 46.4 µM.
Consider `COc1cc(C(=O)O)ccc1O` [vanillic acid], for which the IC50 in experiment [1] (setting [3]) is > 297 µM.
In the case of `COc1ccc2cc3[n+](cc2c1OC)CCc1cc2c(cc1-3)OCO2` [berberine], in experiment [1] (read-out: IC50), the IC50 was 2.8 µM.
As for `CC(=O)SCC[N+](C)(C)C` [Acetylthiocholine chloride], the Km (as a rule, the substrate concentration at which the rate is half of its maximum) in experiment [2] is 330 µM.
Regarding `COc1cc(/C=C/C(=O)O)ccc1O` [ferulic acid], the IC50 in experiment [1] (setting [3]) was > 257 µM.
